{"source": "ChEMBL document CHEMBL1201862", "about": "“PubChem BioAssay data set” (2004)", "key": {"[1]": {"molecular_target": "G-protein coupled receptor 55 (Homo sapiens, UniProt Q9Y2T6)", "test": "inhibition of LPI-stimulated GPR55 beta-arrestin translocation – imaging, U2OS, beta-arrestin-GFP, LPI agonist, primary screen (AID 2013);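 further: antagonist potency measured as reduced agonist-driven arrestin aggregation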", "type": "functional"}, "[2]": {"molecular_target": "UDP-galactopyranose mutase (Mycobacterium tuberculosis, UniProt P9WIQ1)", "sequence (P9WIQ1 whole entry)": "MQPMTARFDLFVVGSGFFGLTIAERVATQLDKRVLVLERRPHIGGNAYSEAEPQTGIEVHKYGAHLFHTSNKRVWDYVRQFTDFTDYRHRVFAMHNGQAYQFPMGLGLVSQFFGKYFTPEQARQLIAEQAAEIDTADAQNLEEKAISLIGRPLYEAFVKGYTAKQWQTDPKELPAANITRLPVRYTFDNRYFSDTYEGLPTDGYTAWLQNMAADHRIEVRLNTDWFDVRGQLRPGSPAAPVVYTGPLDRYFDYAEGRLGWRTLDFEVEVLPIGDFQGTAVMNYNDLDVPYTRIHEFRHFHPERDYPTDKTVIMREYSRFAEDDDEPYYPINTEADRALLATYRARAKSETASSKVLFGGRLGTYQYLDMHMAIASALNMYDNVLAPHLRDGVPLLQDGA", "test": "Inhibitors of Mycobacterium tuberculosis UDP-galactopyranose mutase (UGM) enzyme Measured in Biochemical System Using Plate Reader - 2105-02_Inhibitor_Dose_CherryPick_Activity. [Related pubchem assays (depositor defined):AID504439]"}, "[3]": {"test": "viability loss in THP-1 monocytes – THP-1 cells, cytotoxicity control for Vif-APOBEC3G degradation inhibitor project, dose response (AID 1117359)", "type": "functional", "details": "THP-1"}, "[4]": {"molecular_target": "Large T antigen (Simian virus 40, UniProt P03070)", "sequence (P03070 whole entry)": "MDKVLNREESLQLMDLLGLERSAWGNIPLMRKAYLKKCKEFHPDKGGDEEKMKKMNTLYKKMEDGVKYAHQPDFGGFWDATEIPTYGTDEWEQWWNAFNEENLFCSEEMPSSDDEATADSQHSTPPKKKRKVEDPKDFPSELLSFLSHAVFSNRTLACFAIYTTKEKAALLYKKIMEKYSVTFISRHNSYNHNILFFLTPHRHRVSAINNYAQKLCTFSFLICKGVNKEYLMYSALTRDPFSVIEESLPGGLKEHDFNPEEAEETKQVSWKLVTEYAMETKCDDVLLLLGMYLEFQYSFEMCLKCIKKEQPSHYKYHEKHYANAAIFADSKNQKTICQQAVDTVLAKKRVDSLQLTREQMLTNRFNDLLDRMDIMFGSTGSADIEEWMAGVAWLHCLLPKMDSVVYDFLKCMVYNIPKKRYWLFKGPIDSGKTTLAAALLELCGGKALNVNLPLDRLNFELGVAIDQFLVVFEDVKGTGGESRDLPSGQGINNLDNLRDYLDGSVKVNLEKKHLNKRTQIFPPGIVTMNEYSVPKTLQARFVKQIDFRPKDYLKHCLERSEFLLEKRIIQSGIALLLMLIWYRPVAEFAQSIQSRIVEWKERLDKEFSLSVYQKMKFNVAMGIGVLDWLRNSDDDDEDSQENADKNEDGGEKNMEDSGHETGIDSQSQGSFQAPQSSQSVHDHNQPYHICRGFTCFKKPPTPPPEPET", "type": "functional, Betapolyomavirus macacae"}, "[5]": {"molecular_target": "T1, SUMO-activating enzyme (Homo sapiens, UniProt Q9UBT2)", "T1 sequence (Q9UBE0 whole entry)": "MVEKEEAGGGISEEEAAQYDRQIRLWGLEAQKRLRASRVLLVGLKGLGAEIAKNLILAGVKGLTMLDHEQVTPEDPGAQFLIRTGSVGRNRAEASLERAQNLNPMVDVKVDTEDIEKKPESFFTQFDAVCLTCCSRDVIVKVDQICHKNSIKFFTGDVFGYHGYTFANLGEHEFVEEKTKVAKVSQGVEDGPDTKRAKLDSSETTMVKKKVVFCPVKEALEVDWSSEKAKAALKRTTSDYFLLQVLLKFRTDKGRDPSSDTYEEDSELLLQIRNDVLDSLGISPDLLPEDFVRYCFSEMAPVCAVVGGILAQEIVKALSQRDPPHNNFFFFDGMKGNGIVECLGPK", "T1 sequence (Q9UBT2 whole entry)": "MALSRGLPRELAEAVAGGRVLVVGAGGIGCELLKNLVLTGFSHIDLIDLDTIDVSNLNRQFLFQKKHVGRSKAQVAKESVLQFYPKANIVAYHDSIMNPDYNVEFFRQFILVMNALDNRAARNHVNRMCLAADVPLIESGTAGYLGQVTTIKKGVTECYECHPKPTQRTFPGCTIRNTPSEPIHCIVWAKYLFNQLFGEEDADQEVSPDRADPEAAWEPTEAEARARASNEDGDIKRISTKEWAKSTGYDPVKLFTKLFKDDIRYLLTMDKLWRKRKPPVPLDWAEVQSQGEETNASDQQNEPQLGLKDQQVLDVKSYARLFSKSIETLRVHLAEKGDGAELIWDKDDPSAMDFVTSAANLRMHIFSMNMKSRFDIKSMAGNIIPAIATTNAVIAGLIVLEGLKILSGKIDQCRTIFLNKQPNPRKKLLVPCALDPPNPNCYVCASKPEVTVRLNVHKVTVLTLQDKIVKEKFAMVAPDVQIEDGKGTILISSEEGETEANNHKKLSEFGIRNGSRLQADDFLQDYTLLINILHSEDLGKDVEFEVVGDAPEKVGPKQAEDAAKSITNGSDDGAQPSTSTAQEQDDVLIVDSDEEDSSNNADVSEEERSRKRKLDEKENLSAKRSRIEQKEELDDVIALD", "test": "blockers of SAE1/SAE2–UBC9 SUMO transfer – biochemical, HTRF, uHTS, primary screen (AID 2006)", "type": "protein-complex assay"}, "[6]": {"molecular_target": "T1, SUMO-activating enzyme", "test": "blockers of UBC9-mediated SUMO conjugation – biochemical, AlphaScreen, SUMOylation inhibitor project, confirmation (AID 2018)", "type": "functional"}, "[7]": {"molecular_target": "Peroxisome proliferator-activated receptor gamma/Nuclear receptor coactivator 3 (Homo sapiens, UniProt P37231)", "sequence (P37231 whole entry)": "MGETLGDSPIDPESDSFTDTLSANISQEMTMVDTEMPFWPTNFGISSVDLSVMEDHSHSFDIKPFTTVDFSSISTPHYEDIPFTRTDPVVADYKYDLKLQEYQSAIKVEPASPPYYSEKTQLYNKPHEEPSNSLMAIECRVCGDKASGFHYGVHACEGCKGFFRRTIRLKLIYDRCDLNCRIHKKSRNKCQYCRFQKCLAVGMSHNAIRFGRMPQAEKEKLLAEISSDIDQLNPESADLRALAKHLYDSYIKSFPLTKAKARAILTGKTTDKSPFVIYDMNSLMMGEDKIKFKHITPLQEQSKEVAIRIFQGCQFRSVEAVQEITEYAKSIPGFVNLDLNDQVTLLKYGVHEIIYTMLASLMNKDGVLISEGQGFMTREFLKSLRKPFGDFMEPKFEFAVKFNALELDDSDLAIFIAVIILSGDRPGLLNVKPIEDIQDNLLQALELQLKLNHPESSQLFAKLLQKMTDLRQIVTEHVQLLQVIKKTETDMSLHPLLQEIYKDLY", "sequence (Q9Y6Q9 whole entry, further chain)": "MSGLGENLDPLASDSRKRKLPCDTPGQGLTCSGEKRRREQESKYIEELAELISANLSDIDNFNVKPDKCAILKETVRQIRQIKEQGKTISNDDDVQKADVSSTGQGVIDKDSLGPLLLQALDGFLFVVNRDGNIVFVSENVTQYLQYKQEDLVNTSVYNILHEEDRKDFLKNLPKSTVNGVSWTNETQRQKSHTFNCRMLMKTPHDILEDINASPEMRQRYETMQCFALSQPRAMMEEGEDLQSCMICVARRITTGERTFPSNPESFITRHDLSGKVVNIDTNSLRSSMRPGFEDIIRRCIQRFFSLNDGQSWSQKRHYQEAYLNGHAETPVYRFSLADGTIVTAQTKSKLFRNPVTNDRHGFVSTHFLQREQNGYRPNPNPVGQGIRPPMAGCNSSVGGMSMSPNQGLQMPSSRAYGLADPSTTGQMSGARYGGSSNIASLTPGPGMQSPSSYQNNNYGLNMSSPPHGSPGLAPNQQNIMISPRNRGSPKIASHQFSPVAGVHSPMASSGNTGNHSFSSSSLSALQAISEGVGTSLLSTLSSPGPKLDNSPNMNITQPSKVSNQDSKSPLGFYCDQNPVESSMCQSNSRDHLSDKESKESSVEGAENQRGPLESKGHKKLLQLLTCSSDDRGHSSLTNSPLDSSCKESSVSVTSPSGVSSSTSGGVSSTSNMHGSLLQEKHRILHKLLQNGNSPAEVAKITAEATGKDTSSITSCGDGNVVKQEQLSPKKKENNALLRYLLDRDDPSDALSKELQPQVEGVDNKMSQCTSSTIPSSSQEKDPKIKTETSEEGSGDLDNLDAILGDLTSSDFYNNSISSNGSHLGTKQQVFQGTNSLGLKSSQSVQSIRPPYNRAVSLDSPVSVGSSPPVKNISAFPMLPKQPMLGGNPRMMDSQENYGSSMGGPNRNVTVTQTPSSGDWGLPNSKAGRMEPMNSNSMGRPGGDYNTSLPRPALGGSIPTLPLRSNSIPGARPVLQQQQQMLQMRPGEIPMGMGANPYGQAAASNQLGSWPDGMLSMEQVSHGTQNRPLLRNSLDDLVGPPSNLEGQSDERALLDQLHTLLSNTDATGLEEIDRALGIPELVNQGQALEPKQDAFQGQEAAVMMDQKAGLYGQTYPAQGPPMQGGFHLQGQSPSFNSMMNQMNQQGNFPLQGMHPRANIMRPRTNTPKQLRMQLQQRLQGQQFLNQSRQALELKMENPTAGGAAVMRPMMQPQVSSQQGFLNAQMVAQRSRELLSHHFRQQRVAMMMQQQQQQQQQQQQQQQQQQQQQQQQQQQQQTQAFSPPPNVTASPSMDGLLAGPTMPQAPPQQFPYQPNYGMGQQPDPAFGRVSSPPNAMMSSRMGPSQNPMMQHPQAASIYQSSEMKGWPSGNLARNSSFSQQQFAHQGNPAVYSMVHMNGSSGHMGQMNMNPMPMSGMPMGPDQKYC", "test": "TR-FRET dose response biochemical High Throughput Screening assay for agonists of the steroid receptor coactivator 3 (SRC-3) recruitment by the peroxisome proliferator-activated receptor gamma (PPAR gamma): non-selective agonists. [Related pubchem assays: 1301 (Confirmation screen.), 1048 (Primary screen.)]", "type": "functional"}, "[8]": {"molecular_target": "Peroxisome proliferator-activated receptor gamma/Nuclear receptor coactivator 2 (Homo sapiens, UniProt P37231)", "test": "(§1) TR-FRET dose response biochemical High Throughput Screening assay for agonists of the steroid receptor coactivator 2 (SRC-2) recruitment by the peroxisome proliferator-activated receptor gamma (PPAR gamma): non-selective agonists. [Related pubchem assays: 1297, 1032 ]", "type": "functional"}, "[9]": {"molecular_target": "Mitogen-activated protein kinase 10 (Homo sapiens, UniProt P53779)", "test": "Dose response biochemical screening assay for inhibitors of c-Jun N-Terminal Kinase 3 (JNK3). [Related pubchem assays: 746 ]"}, "[10]": {"molecular_target": "Peroxisome proliferator-activated receptor gamma/Nuclear receptor coactivator 1 (Homo sapiens, UniProt P37231)", "test": "as §1, with “1 (SRC-1)” for “2 (SRC-2)”, “assays (depositor defined):AID1300, AID1808, AID504735, AID631]” for “assays: 1297, 1032 ]”", "type": "protein assay"}, "[11]": {"molecular_target": "DNA (cytosine-5)-methyltransferase 1 (Homo sapiens, UniProt P26358)", "test": "inhibition of DNA methylation by DNMT1 – biochemical, fluorescent molecular beacon, confirmation (AID 602386)", "type": "functional"}, "[12]": {"system": "Vero", "test": "cells", "type": "functional", "details": "Chlorocebus sabaeus"}, "[13]": {"molecular_target": "T2, Microphthalmia-associated transcription factor (Homo sapiens, UniProt O75030)", "T2 sequence (O75030 whole entry)": "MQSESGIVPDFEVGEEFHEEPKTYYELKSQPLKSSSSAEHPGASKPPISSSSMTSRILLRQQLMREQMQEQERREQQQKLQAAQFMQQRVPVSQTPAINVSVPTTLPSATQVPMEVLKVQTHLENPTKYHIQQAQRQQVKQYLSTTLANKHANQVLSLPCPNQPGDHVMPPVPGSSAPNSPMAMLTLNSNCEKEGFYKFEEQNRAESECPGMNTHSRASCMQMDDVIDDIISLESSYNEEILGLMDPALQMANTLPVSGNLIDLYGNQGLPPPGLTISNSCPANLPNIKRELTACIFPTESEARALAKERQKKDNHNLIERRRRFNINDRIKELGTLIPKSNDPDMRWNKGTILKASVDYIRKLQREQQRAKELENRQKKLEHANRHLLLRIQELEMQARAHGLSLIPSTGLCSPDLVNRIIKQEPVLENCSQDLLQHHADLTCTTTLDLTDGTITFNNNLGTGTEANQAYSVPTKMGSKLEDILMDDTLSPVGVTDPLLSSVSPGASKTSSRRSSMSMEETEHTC", "test": "reducers of TRPM1 reporter luminescence, concentration series – cell-based, SK-MEL-5, cherry-picked, set 3, MITF inhibitor project, dose response (AID 493073)", "type": "functional"}, "[14]": {"molecular_target": "T3, Heat shock factor protein 1 (Mus musculus, UniProt P38532)", "T3 sequence (P38532 whole entry)": "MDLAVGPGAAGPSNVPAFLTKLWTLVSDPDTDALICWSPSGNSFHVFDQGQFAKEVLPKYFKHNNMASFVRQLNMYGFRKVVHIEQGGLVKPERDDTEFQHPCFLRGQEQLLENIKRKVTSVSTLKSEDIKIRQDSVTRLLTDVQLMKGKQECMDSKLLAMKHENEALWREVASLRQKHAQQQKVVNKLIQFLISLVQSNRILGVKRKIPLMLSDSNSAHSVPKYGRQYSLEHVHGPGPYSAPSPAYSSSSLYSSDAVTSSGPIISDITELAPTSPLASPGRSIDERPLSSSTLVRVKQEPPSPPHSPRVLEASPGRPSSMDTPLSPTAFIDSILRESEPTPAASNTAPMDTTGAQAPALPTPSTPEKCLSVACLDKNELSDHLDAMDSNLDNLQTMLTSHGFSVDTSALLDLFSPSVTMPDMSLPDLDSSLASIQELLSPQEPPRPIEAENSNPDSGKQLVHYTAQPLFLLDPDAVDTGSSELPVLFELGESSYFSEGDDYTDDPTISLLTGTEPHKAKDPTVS", "test": "enhancement of HSF1-driven luciferase signal – cell-based, NIH3T3, luminescence, dose retest, confirmation (AID 435004)", "type": "functional"}, "[15]": {"system": "Vero", "test": "viability of Vero cells under compound – cytotoxicity control for flavivirus capping enzyme inhibitors (AID 588742)", "type": "functional", "details": "Chlorocebus sabaeus"}, "[16]": {"molecular_target": "Induced myeloid leukemia cell differentiation protein Mcl-1 (Homo sapiens, UniProt Q07820)", "type": "functional"}, "[17]": {"molecular_target": "Genome polyprotein (dengue virus type 2, UniProt P29990)", "test": "flavivirus cap methylation enzyme inhibition – biochemical, confirmation dose response, primary screen (AID 588689)", "type": "functional"}, "[18]": {"molecular_target": "Hepatocyte nuclear factor 4-alpha (Homo sapiens, UniProt P41235)", "type": "functional, cell-based"}, "[19]": {"molecular_target": "Lysine-specific demethylase 4C (Homo sapiens, UniProt Q9H3R0)", "sequence (Q9H3R0 whole entry)": "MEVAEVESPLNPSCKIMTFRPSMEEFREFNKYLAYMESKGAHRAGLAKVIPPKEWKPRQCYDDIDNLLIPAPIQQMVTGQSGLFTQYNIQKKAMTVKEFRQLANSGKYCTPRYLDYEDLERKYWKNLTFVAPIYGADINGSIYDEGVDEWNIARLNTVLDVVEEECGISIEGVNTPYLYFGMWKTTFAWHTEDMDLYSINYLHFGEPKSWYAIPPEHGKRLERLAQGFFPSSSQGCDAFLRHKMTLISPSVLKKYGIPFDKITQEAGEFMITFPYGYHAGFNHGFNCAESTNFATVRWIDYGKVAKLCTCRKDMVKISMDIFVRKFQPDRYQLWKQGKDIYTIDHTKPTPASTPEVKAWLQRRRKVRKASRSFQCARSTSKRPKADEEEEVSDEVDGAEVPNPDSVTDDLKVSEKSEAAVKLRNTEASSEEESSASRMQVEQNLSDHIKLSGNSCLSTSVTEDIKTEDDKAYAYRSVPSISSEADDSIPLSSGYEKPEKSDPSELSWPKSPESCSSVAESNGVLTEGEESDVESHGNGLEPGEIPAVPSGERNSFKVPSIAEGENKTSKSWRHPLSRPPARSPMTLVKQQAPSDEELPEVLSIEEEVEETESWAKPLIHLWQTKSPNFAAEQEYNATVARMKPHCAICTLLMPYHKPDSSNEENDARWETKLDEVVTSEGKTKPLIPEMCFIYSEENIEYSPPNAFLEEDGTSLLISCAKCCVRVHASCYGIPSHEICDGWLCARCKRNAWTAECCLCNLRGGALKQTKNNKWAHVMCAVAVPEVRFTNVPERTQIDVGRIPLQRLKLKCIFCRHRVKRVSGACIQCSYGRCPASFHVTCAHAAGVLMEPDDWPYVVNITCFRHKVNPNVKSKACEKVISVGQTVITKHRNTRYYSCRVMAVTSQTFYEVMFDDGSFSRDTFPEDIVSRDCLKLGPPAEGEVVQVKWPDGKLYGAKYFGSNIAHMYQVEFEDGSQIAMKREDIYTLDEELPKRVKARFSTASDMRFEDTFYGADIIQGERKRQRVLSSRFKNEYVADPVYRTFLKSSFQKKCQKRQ", "test": "inhibition of JMJD2C H3K9me3 demethylation – biochemical, DELFIA europium, cherry-picked samples, dose response (AID 488835)", "type": "functional"}}, "note": "The source made the active and inactive calls.", "data": [{"smiles": "CCOC(=O)c1c(-c2ccccc2)oc2ccc(O)c(CN3CCN(C)CC3)c12", "values": [{"measurement": "IC50", "setting": "[1]", "result": "6.85 µM (active)"}]}, {"smiles": "COc1ccccc1N1C(=O)C2C(C(=O)c3ccccc3)=NN(c3ccc(Br)cc3)C2C1=O", "note": "(stereo not given)", "values": [{"measurement": "AC50", "setting": "[2]", "result": "265 µM (active)"}]}, {"smiles": "O=C1N=C(Nc2ccc(O)cc2)S/C1=C\\C=C\\c1ccco1", "values": [{"measurement": "CC50", "setting": "[3]", "result": "2.84 µM (active)"}, {"measurement": "IC50", "setting": "[4]", "result": "31.5 µM (active)"}, {"measurement": "IC50", "setting": "[5]", "result": "30.8 µM (active)"}, {"measurement": "IC50", "setting": "[6]", "result": "2.59 µM (active)"}]}, {"smiles": "CCOC(=O)CCC(NC(=O)c1ccc(NCN2C(=O)c3ccccc3C2=O)cc1)C(=O)OCC", "note": "(stereo not given)", "values": [{"measurement": "EC50", "setting": "[7]", "result": "> 79.4 µM (not active)"}, {"measurement": "EC50", "setting": "[8]", "result": "> 79.4 µM (not active)"}, {"measurement": "IC50", "setting": "[9]", "result": "13.1 µM (not active)"}, {"measurement": "EC50", "setting": "[10]", "result": "> 79.4 µM (inactive)"}]}, {"smiles": "O=C1NC(=S)NC(=O)C1=Cc1cccn1-c1ccc(O)cc1", "values": [{"measurement": "IC50", "setting": "[11]", "result": "4.82 µM (active)"}, {"measurement": "IC50", "setting": "[4]", "result": "30.3 µM (active)"}, {"measurement": "CC50", "setting": "[12]", "result": "23 µM (active)"}, {"measurement": "IC50", "setting": "[5]", "result": "21.9 µM (active)"}, {"measurement": "AC50", "setting": "[13]", "result": "11.4 µM (active)"}, {"measurement": "EC50", "setting": "[14]", "result": "10.6 µM (active)"}, {"measurement": "CC50", "setting": "[15]", "result": "34.8 µM (active)"}, {"measurement": "IC50", "setting": "[6]", "result": "7.4 µM (active)"}, {"measurement": "IC50", "setting": "[16]", "result": "4.45 µM (active)"}, {"measurement": "IC50", "setting": "[17]", "result": "34.2 µM (active)"}]}, {"smiles": "O=C1NC(=O)N(Cc2ccc(F)cc2)C(=O)/C1=C\\C=C\\c1ccco1", "values": [{"measurement": "CC50", "setting": "[3]", "result": "28.9 µM (active)"}, {"measurement": "IC50", "setting": "[18]", "result": "1.87 µM (active)"}, {"measurement": "AC50", "setting": "[19]", "result": "7.02 µM (active)"}, {"measurement": "AC50", "setting": "[13]", "result": "6.63 µM (active)"}]}, {"smiles": "Cc1cc(C(C)(C)C)cc(S(=O)(=O)Nc2ccc(C(=O)O)cc2)c1C", "values": [{"measurement": "AC50", "setting": "[2]", "result": "0.201 µM (active)"}]}]}
